# Values quoted from earlier work, collected in US11732223B2, “Solvent compositions for removing petroleum residue from a substrate and methods of use thereof” (priority 2004, dated 2023).
# Tested on: rats
smiles,measurement,setting,value
CCCCOCCOCCO [butyl carbitol],oral LD50,"oral, rats","6,560 mg/kg"
same,toxicity rating on the Hodge and Sterner scale,"rat, in vivo",5
